Data on two compounds can be found in publication PMC7224190, “Pharmacological inhibition of PRMT7 links arginine monomethylation to the cellular stress response” (Nature Communications, 2020).

In experiment [1] the target is T1, PRMT7 (Homo sapiens, UniProt Q9NVM4).
T1 sequence (Q9NVM4 1-692): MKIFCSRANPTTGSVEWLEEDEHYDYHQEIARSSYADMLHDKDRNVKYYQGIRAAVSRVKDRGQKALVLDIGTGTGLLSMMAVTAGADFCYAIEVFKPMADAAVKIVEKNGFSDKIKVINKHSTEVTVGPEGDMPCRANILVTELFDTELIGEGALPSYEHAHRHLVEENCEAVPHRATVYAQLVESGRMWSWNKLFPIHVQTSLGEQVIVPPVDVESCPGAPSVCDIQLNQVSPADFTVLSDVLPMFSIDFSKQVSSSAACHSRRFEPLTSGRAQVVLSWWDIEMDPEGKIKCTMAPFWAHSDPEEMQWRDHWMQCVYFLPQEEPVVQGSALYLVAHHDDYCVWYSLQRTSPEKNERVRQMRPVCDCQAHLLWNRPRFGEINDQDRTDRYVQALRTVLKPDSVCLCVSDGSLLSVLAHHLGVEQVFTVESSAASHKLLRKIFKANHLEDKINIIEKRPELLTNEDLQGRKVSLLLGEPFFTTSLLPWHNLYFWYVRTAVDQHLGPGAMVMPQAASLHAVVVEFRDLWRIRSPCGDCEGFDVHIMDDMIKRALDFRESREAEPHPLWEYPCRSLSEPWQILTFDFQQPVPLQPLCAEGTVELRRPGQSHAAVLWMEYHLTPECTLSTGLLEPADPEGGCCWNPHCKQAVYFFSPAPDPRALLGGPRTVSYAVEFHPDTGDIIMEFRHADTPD
As to the kind of experiment: radiometric enzyme kinetics (Km of the methyl donor) with HSPA8 as substrate in presence of ATP. It counts as biochemical.

In experiment [2] the target is T1, PRMT7. As to the kind of experiment: radiometric SPA methyltransferase assay, 3H-SAM and H2B ([…]). It counts as biochemical.

SMILES strings stand for the structures.

For `C[S@@+](CC[C@H](N)C(=O)O)C[C@H]1O[C@@H](n2cnc3c(N)ncnc32)[C@H](O)[C@@H]1O` [SAM], the Michaelis-Menten constant (Km) in experiment [1] worked out at 1.6 ± 0.1 µM. In experiment [2], `NCCCSC[C@H]1O[C@@H](n2cnc3c(N)ncnc32)[C@H](O)[C@@H]1O` [SGC0911] had an IC50 of 1000 nM. In other words, the single-digit micromolar range.

As usually defined, the Km is the concentration of substrate that gives half-maximal velocity. In general, IC50 refers to the midpoint of a concentration-inhibition curve. A low value points to greater potency.
